“And” between values parts separate entries of the source, which are not always exact repeats. Equal values may be shown once. Toxic doses and inconclusive results are not listed. Cut-off read from the data, not from the text of the source: active = T/C of 150% or more; inactive = T/C below 125%.
Test system: L1210 leukemia ip in BDF1 mice, survival T/C
Assay: NCI In Vivo Anticancer Drug Screen. Data for tumor model L1210 Leukemia (intraperitoneal) in B6D2F1 (BDF1) mice
Conditions: endpoint: mean survival time, higher = longer survival
Procedure, shortened: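 Tumor was transplanted into mice, which were then dosed with test compound or vehicle alone. Survival was recorded for each group, and the treated figure was expressed relative to the control figure.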

[1] = dose: 400.0 mg/kg/injection, schedule: Q04DX002 (ip), vehicle: saline with Tween-80
[2] = dose: 100.0 mg/kg/injection, schedule: Q01DX009 (ip), vehicle: Klucel (hydroxypropylcellulose) (HPC)
[3] = dose: 100.0 mg/kg/injection, schedule: Q04DX003 (ip), vehicle: Klucel (hydroxypropylcellulose) (HPC)
[4] = dose: 100.0 mg/kg/injection, schedule: Q04DX003 (ip), vehicle: saline
[5] = dose: 200.0 mg/kg/injection, schedule: Q01DX009 (ip), vehicle: Klucel (hydroxypropylcellulose) (HPC)
[6] = dose: 200.0 mg/kg/injection, schedule: Q04DX003 (ip), vehicle: Klucel (hydroxypropylcellulose) (HPC)
[7] = dose: 200.0 mg/kg/injection, schedule: Q04DX003 (ip), vehicle: saline
[8] = dose: 400.0 mg/kg/injection, schedule: Q04DX003 (ip), vehicle: Klucel (hydroxypropylcellulose) (HPC)
[9] = dose: 400.0 mg/kg/injection, schedule: Q04DX003 (ip), vehicle: saline
[10] = dose: 75.0 mg/kg/injection, schedule: Q01DX001 (ip), vehicle: saline
[11] = dose: 150.0 mg/kg/injection, schedule: Q01DX001 (ip), vehicle: saline
[12] = dose: 100.0 mg/kg/injection, schedule: Q04DX002 (ip), vehicle: saline with Tween-80
[13] = dose: 100.0 mg/kg/injection, schedule: Q01DX009 (ip), vehicle: saline with Tween-80
[14] = dose: 100.0 mg/kg/injection, schedule: Q04DX003 (ip), vehicle: saline with Tween-80
[15] = dose: 200.0 mg/kg/injection, schedule: Q04DX003 (ip), vehicle: saline with Tween-80
[16] = dose: 400.0 mg/kg/injection, schedule: Q04DX003 (ip), vehicle: saline with Tween-80
[17] = dose: 100.0 mg/kg/injection, schedule: Q01DX001 (ip), vehicle: saline

Measured: T/C

Fc1c(F)c(F)c(-c2ccccc2)c(F)c1F
inactive: dose: 25.6 mg/kg/injection, schedule: Q04DX002 (ip), vehicle: saline with Tween-80 92 % of control | dose: 64.0 mg/kg/injection, schedule: Q04DX002 (ip), vehicle: saline with Tween-80 95 % of control | dose: 160.0 mg/kg/injection, schedule: Q04DX002 (ip), vehicle: saline with Tween-80 95 % of control | [1] 95 % of control

CCSC(SCC)C(O)C(O)C(O)C(O)CO (stereo not drawn)
inactive: [2] 101 % of control and 98 % of control | [3] 101 % of control and 92 % of control | [4] 101 % of control | [5] 106 % of control and 97 % of control | [6] 101 % of control and 95 % of control | [7] 93 % of control | dose: 400.0 mg/kg/injection, schedule: Q01DX009 (ip), vehicle: Klucel (hydroxypropylcellulose) (HPC) 114 % of control and 97 % of control | [8] 101 % of control and 92 % of control | [9] 92 % of control

c1ccc([P+](c2ccccc2)(c2ccccc2)C2OCCO2)cc1
inactive: dose: 25.0 mg/kg/injection, schedule: Q04DX003 (ip), vehicle: saline with Tween-80 95 % of control | dose: 50.0 mg/kg/injection, schedule: Q04DX003 (ip), vehicle: saline with Tween-80 103 % of control

NC(=O)C(NC(=O)c1ccc([N+](=O)[O-])cc1)SCc1ccccc1 (stereo not drawn)
inactive: dose: 100.0 mg/kg/injection, schedule: Q04DX002 (ip), vehicle: gum acacia 96 % of control | dose: 200.0 mg/kg/injection, schedule: Q04DX002 (ip), vehicle: gum acacia 90 % of control | dose: 400.0 mg/kg/injection, schedule: Q04DX002 (ip), vehicle: gum acacia 86 % of control

Cc1scc[n+]1C
inactive: [10] 104 % of control | [11] 102 % of control | dose: 300.0 mg/kg/injection, schedule: Q01DX001 (ip), vehicle: saline 107 % of control

Cc1ccc(S(=O)(=O)OCC2OC(n3cnc4c(NC=O)ncnc43)C(OC=O)C2OC=O)cc1 (stereo not drawn)
inactive: dose: 50.0 mg/kg/injection, schedule: Q01DX009 (ip), vehicle: gum acacia 115 % of control | dose: 100.0 mg/kg/injection, schedule: Q01DX005 (ip), vehicle: saline 105 % of control | dose: 100.0 mg/kg/injection, schedule: Q01DX009 (ip), vehicle: gum acacia 104 % of control | dose: 200.0 mg/kg/injection, schedule: Q01DX009 (ip), vehicle: gum acacia 100 % of control

CN(N)C(=O)Nc1ccc(Cl)c(Cl)c1
inactive: dose: 75.0 mg/kg/injection, schedule: Q01DX001 (ip), vehicle: carboxymethylcellulose (CMC) 110 % of control | dose: 150.0 mg/kg/injection, schedule: Q01DX001 (ip), vehicle: carboxymethylcellulose (CMC) 113 % of control

CC(C)COC(c1ccc2c(c1)OCO2)C(C)Br (stereo not drawn)
inactive: [12] 96 % of control | dose: 200.0 mg/kg/injection, schedule: Q04DX002 (ip), vehicle: saline with Tween-80 101 % of control | [1] 107 % of control

O=c1cc(C(O)c2ccccc2)c2cccc3c2n1CCC3 (stereo not drawn)
inactive: [13] 95 % of control | [14] 98 % of control | dose: 200.0 mg/kg/injection, schedule: Q01DX009 (ip), vehicle: saline with Tween-80 95 % of control | [15] 95 % of control | dose: 400.0 mg/kg/injection, schedule: Q01DX009 (ip), vehicle: saline with Tween-80 101 % of control | [16] 89 % of control

CN(C)c1ccc(/C=N\NC(=O)CCCCC(=O)N/N=C\c2ccc(N(C)C)cc2)cc1
inactive: [3] 94 % of control | [6] 91 % of control | [8] 91 % of control

CC1(C)N(C(=S)Nc2ccccc2)C1(C)C
inactive: dose: 50.0 mg/kg/injection, schedule: Q01DX009 (ip), vehicle: Klucel (hydroxypropylcellulose) (HPC) 106 % of control | dose: 50.0 mg/kg/injection, schedule: Q04DX003 (ip), vehicle: Klucel (hydroxypropylcellulose) (HPC) 92 % of control | [2] 95 % of control | [3] 103 % of control | [5] 92 % of control | [6] 102 % of control

C[N+]12CC3C(O)CC1CCC32 (stereo not drawn)
inactive: [17] 101 % of control

C/C(CN(C)C)=N\O
inactive: dose: 100.0 mg/kg/injection, schedule: Q04DX002 (ip), vehicle: saline 101 % of control | dose: 200.0 mg/kg/injection, schedule: Q04DX002 (ip), vehicle: saline 99 % of control | dose: 400.0 mg/kg/injection, schedule: Q04DX002 (ip), vehicle: saline 92 % of control

O=S(=O)(O)O.[NH-]CC(N)=O.[NH-]CC(N)=O.[Ni+2]
inactive: dose: 6.25 mg/kg/injection, schedule: Q01DX009 (ip), vehicle: water 109 % of control | dose: 12.5 mg/kg/injection, schedule: Q01DX009 (ip), vehicle: water 97 % of control | dose: 25.0 mg/kg/injection, schedule: Q01DX009 (ip), vehicle: water 90 % of control

CC1C(=O)C(=O)C(CCc2ccccc2)C1=O (stereo not drawn)
inactive: [14] 97 % of control | [15] 97 % of control | [16] 97 % of control

CN1C2CCCCC1CC(=O)NC2 (stereo not drawn)
inactive: [10] 98 % of control | [11] 101 % of control

CC(C)c1nc(C=O)c(C=O)n1Cc1ccccc1
inactive: dose: 25.0 mg/kg/injection, schedule: Q01DX009 (ip), vehicle: saline with Tween-80 100 % of control and 90 % of control | dose: 25.0 mg/kg/injection, schedule: Q04DX002 (ip), vehicle: saline with Tween-80 101 % of control and 103 % of control | dose: 25.0 mg/kg/injection, schedule: Q04DX003 (ip), vehicle: carboxymethylcellulose (CMC) 92 % of control | dose: 50.0 mg/kg/injection, schedule: Q01DX001 (ip), vehicle: saline with Tween-80 89 % of control | dose: 50.0 mg/kg/injection, schedule: Q01DX009 (ip), vehicle: saline with Tween-80 102 % of control and 103 % of control | dose: 50.0 mg/kg/injection, schedule: Q04DX002 (ip), vehicle: saline with Tween-80 95 % of control and 101 % of control | dose: 50.0 mg/kg/injection, schedule: Q04DX003 (ip), vehicle: carboxymethylcellulose (CMC) 95 % of control | dose: 100.0 mg/kg/injection, schedule: Q01DX001 (ip), vehicle: saline with Tween-80 96 % of control | [13] 94 % of control and 105 % of control | dose: 100.0 mg/kg/injection, schedule: Q04DX002 (ip), vehicle: Klucel (hydroxypropylcellulose) (HPC) 105 % of control | dose: 100.0 mg/kg/injection, schedule: Q04DX002 (ip), vehicle: other 98 % of control and 89 % of control | [12] 95 % of control and 86 % of control | dose: 100.0 mg/kg/injection, schedule: Q04DX003 (ip), vehicle: carboxymethylcellulose (CMC) 100 % of control | dose: 200.0 mg/kg/injection, schedule: Q01DX001 (ip), vehicle: saline with Tween-80 94 % of control | dose: 200.0 mg/kg/injection, schedule: Q04DX002 (ip), vehicle: Klucel (hydroxypropylcellulose) (HPC) 107 % of control | dose: 200.0 mg/kg/injection, schedule: Q04DX002 (ip), vehicle: other 98 % of control

O=C(COc1ccc(Cl)cc1)Nc1ccccc1Br
inactive: dose: 100.0 mg/kg/injection, schedule: Q04DX002 (ip), vehicle: saline + alcohol 96 % of control | dose: 200.0 mg/kg/injection, schedule: Q04DX002 (ip), vehicle: saline + alcohol 107 % of control | dose: 400.0 mg/kg/injection, schedule: Q04DX002 (ip), vehicle: saline + alcohol 103 % of control

CN(C)P1(N)=NP(N)(N(C)C)=NP(N)(N(C)C)=N1 (stereo not drawn)
inactive: dose: 100.0 mg/kg/injection, schedule: Q01DX009 (ip), vehicle: saline 98 % of control | dose: 200.0 mg/kg/injection, schedule: Q01DX009 (ip), vehicle: saline 95 % of control | dose: 400.0 mg/kg/injection, schedule: Q01DX009 (ip), vehicle: saline 93 % of control

NNc1n[nH]c(=O)[nH]c1=O
inactive: [17] 102 % of control | dose: 200.0 mg/kg/injection, schedule: Q01DX001 (ip), vehicle: saline 96 % of control | dose: 400.0 mg/kg/injection, schedule: Q01DX001 (ip), vehicle: saline 96 % of control

NC(C(=O)O)C(=O)c1ccccc1 (stereo not drawn)
inactive: dose: 100.0 mg/kg/injection, schedule: Q01DX009 (ip), vehicle: saline sonified 101 % of control | [4] 102 % of control | dose: 200.0 mg/kg/injection, schedule: Q01DX009 (ip), vehicle: saline sonified 101 % of control | [7] 112 % of control | dose: 400.0 mg/kg/injection, schedule: Q01DX009 (ip), vehicle: saline sonified 106 % of control | [9] 100 % of control
